System: primary cultured neurons derived from hippocampus of mature rat
Experiment: Cytotoxicity test (Cell Death Detection ELISA, apoptosis)
Type: cell-based
Description: The formation of ASPD was confirmed by the following cytotoxicity test. A certain amount of ASPD was administered overnight to primary cultured neurons (more than 19 days after starting culture) derived from hippocampus of mature rat, and the neurotoxicity was measured in accordance with protocols using Cell Death Detection ELISA manufactured by Roche Diagnostics. This is an ELISA kit for quantitative detection of histone-complexed DNA fragmentation in the cells caused by apoptosis.

Row | Molecule | cytotoxicity (neurotoxicity) (solution containing the same concentration of DEHP and not containing synthetic ASPD, data not shown) | cytotoxicity (neurotoxicity) (solution containing synthetic ASPD before purification, 1, 2 and 4 μM in terms of Aβ42, administered overnight, compared with Comparative Example 1 (DEHP−), FIG. 2)
1 | CCCCC(CC)COC(=O)c1ccccc1C(=O)OCC(CC)CCCC (centres unmarked) [DEHP, bis(2-ethylhexyl)phthalate] | No cytotoxicity | –
2 | Example 1: synthetic ASPD (amylospheroid) formed from Aβ42 by agitation using 65 mM DEHP/DMSO solution | – | significant cytotoxicity in a concentration-dependent manner

Reference: patent publication US8946327B2, “Method for producing synthetic amylospheroid” (Tao Health Life Pharma., Ltd., priority 2011, dated 2015)
